These results are taken from PubChem BioAssay (NCI).

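Five concentrations, 48 hours, 96-well plates. TGI: concentration producing complete growth inhibition.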 A value given as a limit tells only on which side of the number the result lay.

In one assay the test system is MOLT-4 leukemia. As to the kind of experiment: growth of human tumour cells (NCI), 48 h.
Regarding `CC1(C)C(=O)N(O)C(C)(C)N1O`, the TGI is more than 10 µM.

Consider `CCOC(=O)CCC(NC(=O)Cc1ccc(Nc2nc3ccccc3nc2-c2ccccc2)cc1)C(=O)OCC` (configuration not stated), for which the TGI is more than 100 µM.

Turning to `COc1cc(/C=C/C(=O)c2sc(-n3nc(-c4ccccc4)cc3-c3ccccc3)nc2C)ccc1O`, the TGI is more than 100 µM.

`O=S1(=O)c2cnccc2NC(=NCc2cccc3ccccc23)N1c1ccccc1` displayed a TGI of more than 100 µM.

For the molecule `COc1cc(NC(C)=O)c2[nH]c3c(C)cc(NC(C)=O)c(C)c3c2c1`, the TGI was more than 100 µM.

As to `COc1cc(/C=C\c2ccccn2)cc(OC)c1OC`, the TGI is more than 100 µM.

The molecule `CCCCCC(=O)Nc1n[nH]nc1C(N)=O` returned a TGI of more than 100 µM.

For `O=P(O)(OCC(O)O)OCC(O)O`, the TGI was more than 100 µM.

Regarding `NC(=O)C(Nc1c(Cl)cccc1Cl)c1cc2cc(Br)ccc2nc1Cl` (configuration not stated), the TGI stood at 57.6 µM.

`CCOC(=O)CSc1ccnc(=O)[nH]1`: the TGI is more than 100 µM.

`COc1ccc(Br)c2c1CC(C(=O)O)CC2` (configuration not stated) yielded a TGI of more than 100 µM.

The molecule `Fc1cc(C2=C[C@H](c3ccc(Cl)cc3)NC(=S)N2)c(Cl)cc1Cl` returned a TGI of more than 100 µM.

A further assay relates to NCI-H23 lung. Nature of the assay: growth of human tumour cells (NCI), 48 h.
`CCOC(C[C@H](O)[C@H]1COC(=S)S1)OCC` came in with a TGI of more than 100 µM.

In turn, `Cn1c(O)c(C(=O)Nc2cccs2)c(=O)[nH]c1=S` registered a TGI of 28 µM.

Regarding `O=C1c2cc3c(cc2CC12Cc1cc4c(cc1C2=O)CCCC4)CCCC3`, the TGI was more than 100 µM.

In the case of `c1csc(-c2cscc2-c2ccsc2)c1`, the TGI is more than 100 µM.

Molecule `COc1ccc(C2c3cc4c(cc3C(O)C3CCC(=O)N23)OCO4)cc1` (configuration not stated) gave a TGI of more than 100 µM.

`CC1(C)C(=O)N(O)C(C)(C)N1O` came in with a TGI of more than 10 µM.

Turning to `CCOC(=O)CCC(NC(=O)Cc1ccc(Nc2nc3ccccc3nc2-c2ccccc2)cc1)C(=O)OCC` (configuration not stated), the TGI was more than 100 µM.

Take `COc1cc(/C=C/C(=O)c2sc(-n3nc(-c4ccccc4)cc3-c3ccccc3)nc2C)ccc1O`: the TGI was more than 100 µM.

Turning to `O=S1(=O)c2cnccc2NC(=NCc2cccc3ccccc23)N1c1ccccc1`, the TGI is more than 100 µM.

Molecule `COc1cc(NC(C)=O)c2[nH]c3c(C)cc(NC(C)=O)c(C)c3c2c1` registered a TGI of more than 100 µM.

The molecule `COc1cc(/C=C\c2ccccn2)cc(OC)c1OC` displayed a TGI of more than 100 µM.

Turning to `CCCCCC(=O)Nc1n[nH]nc1C(N)=O`, the TGI is more than 100 µM.

For `O=P(O)(OCC(O)O)OCC(O)O`, the TGI is more than 100 µM.

The molecule `NC(=O)C(Nc1c(Cl)cccc1Cl)c1cc2cc(Br)ccc2nc1Cl` (configuration not stated) gave a TGI of more than 100 µM.

The molecule `COc1ccc(Br)c2c1CC(C(=O)O)CC2` (configuration not stated) showed a TGI of more than 100 µM.

`Fc1cc(C2=C[C@H](c3ccc(Cl)cc3)NC(=S)N2)c(Cl)cc1Cl` had a TGI of more than 100 µM.

A further assay deals with OVCAR-4 ovarian. Nature of the assay: growth of human tumour cells (NCI), 48 h.
Molecule `Cn1c(O)c(C(=O)Nc2cccs2)c(=O)[nH]c1=S` showed a TGI of 66.1 µM.

`O=C1c2cc3c(cc2CC12Cc1cc4c(cc1C2=O)CCCC4)CCCC3` yielded a TGI of 46.7 µM.

Consider `c1csc(-c2cscc2-c2ccsc2)c1`, for which the TGI was more than 100 µM.

`COc1ccc(C2c3cc4c(cc3C(O)C3CCC(=O)N23)OCO4)cc1` (configuration not stated): the TGI is more than 100 µM.

Take `CC1(C)C(=O)N(O)C(C)(C)N1O`: the TGI is more than 10 µM.

`CCOC(=O)CCC(NC(=O)Cc1ccc(Nc2nc3ccccc3nc2-c2ccccc2)cc1)C(=O)OCC` (configuration not stated): the TGI is more than 100 µM.

As to `O=S1(=O)c2cnccc2NC(=NCc2cccc3ccccc23)N1c1ccccc1`, the TGI was more than 100 µM.

Regarding `COc1cc(NC(C)=O)c2[nH]c3c(C)cc(NC(C)=O)c(C)c3c2c1`, the TGI was more than 100 µM.

`COc1cc(/C=C\c2ccccn2)cc(OC)c1OC`: the TGI is more than 100 µM.

`CCCCCC(=O)Nc1n[nH]nc1C(N)=O`: the TGI is more than 100 µM.

For the molecule `NC(=O)C(Nc1c(Cl)cccc1Cl)c1cc2cc(Br)ccc2nc1Cl` (configuration not stated), the TGI was more than 100 µM.

`COc1ccc(Br)c2c1CC(C(=O)O)CC2` (configuration not stated) had a TGI of more than 100 µM.

`Fc1cc(C2=C[C@H](c3ccc(Cl)cc3)NC(=S)N2)c(Cl)cc1Cl`: the TGI was more than 100 µM.

For another assay, the system named is SK-MEL-2 melanoma. As to the kind of experiment: growth of human tumour cells (NCI), 48 h.
`Cn1c(O)c(C(=O)Nc2cccs2)c(=O)[nH]c1=S` had a TGI of 30.4 µM.

In turn, `O=C1c2cc3c(cc2CC12Cc1cc4c(cc1C2=O)CCCC4)CCCC3` came in with a TGI of more than 100 µM.

On to `c1csc(-c2cscc2-c2ccsc2)c1`, for which the TGI is more than 100 µM.

Consider `COc1ccc(C2c3cc4c(cc3C(O)C3CCC(=O)N23)OCO4)cc1` (configuration not stated), for which the TGI was more than 100 µM.

In turn, `CC1(C)C(=O)N(O)C(C)(C)N1O` had a TGI of more than 10 µM.

In turn, `CCOC(=O)CCC(NC(=O)Cc1ccc(Nc2nc3ccccc3nc2-c2ccccc2)cc1)C(=O)OCC` (configuration not stated) gave a TGI of 72.7 µM.

As for `COc1cc(/C=C/C(=O)c2sc(-n3nc(-c4ccccc4)cc3-c3ccccc3)nc2C)ccc1O`, the TGI is more than 100 µM.

On to `O=S1(=O)c2cnccc2NC(=NCc2cccc3ccccc23)N1c1ccccc1`, for which the TGI is more than 30.5 µM.

For the molecule `COc1cc(NC(C)=O)c2[nH]c3c(C)cc(NC(C)=O)c(C)c3c2c1`, the TGI was more than 100 µM.

`CCCCCC(=O)Nc1n[nH]nc1C(N)=O` displayed a TGI of more than 100 µM.

For `O=P(O)(OCC(O)O)OCC(O)O`, the TGI is more than 100 µM.

`NC(=O)C(Nc1c(Cl)cccc1Cl)c1cc2cc(Br)ccc2nc1Cl` (configuration not stated) gave a TGI of more than 100 µM.

As for `CCOC(=O)CSc1ccnc(=O)[nH]1`, the TGI is more than 100 µM.

`COc1ccc(Br)c2c1CC(C(=O)O)CC2` (configuration not stated) yielded a TGI of more than 100 µM.

The molecule `Fc1cc(C2=C[C@H](c3ccc(Cl)cc3)NC(=S)N2)c(Cl)cc1Cl` yielded a TGI of 96.2 µM.

A further assay relates to SK-MEL-28 melanoma. As to the kind of experiment: growth of human tumour cells (NCI), 48 h.
On to `Cn1c(O)c(C(=O)Nc2cccs2)c(=O)[nH]c1=S`, for which the TGI turned out to be 29 µM.

In turn, `O=C1c2cc3c(cc2CC12Cc1cc4c(cc1C2=O)CCCC4)CCCC3` registered a TGI of more than 100 µM.

On to `c1csc(-c2cscc2-c2ccsc2)c1`, for which the TGI was more than 100 µM.

As for `COc1ccc(C2c3cc4c(cc3C(O)C3CCC(=O)N23)OCO4)cc1` (configuration not stated), the TGI is more than 100 µM.

Molecule `CC1(C)C(=O)N(O)C(C)(C)N1O` came in with a TGI of more than 10 µM.

Molecule `CCOC(=O)CCC(NC(=O)Cc1ccc(Nc2nc3ccccc3nc2-c2ccccc2)cc1)C(=O)OCC` (configuration not stated) registered a TGI of more than 100 µM.

`COc1cc(/C=C/C(=O)c2sc(-n3nc(-c4ccccc4)cc3-c3ccccc3)nc2C)ccc1O`: the TGI is more than 100 µM.

On to `O=S1(=O)c2cnccc2NC(=NCc2cccc3ccccc23)N1c1ccccc1`, for which the TGI is more than 100 µM.

`COc1cc(NC(C)=O)c2[nH]c3c(C)cc(NC(C)=O)c(C)c3c2c1`: the TGI was more than 100 µM.

With `COc1cc(/C=C\c2ccccn2)cc(OC)c1OC`, the TGI was more than 100 µM.

`CCCCCC(=O)Nc1n[nH]nc1C(N)=O`: the TGI was more than 100 µM.

The molecule `O=P(O)(OCC(O)O)OCC(O)O` came in with a TGI of more than 100 µM.

`NC(=O)C(Nc1c(Cl)cccc1Cl)c1cc2cc(Br)ccc2nc1Cl` (configuration not stated) displayed a TGI of more than 100 µM.

`COc1ccc(Br)c2c1CC(C(=O)O)CC2` (configuration not stated): the TGI was more than 100 µM.

`Fc1cc(C2=C[C@H](c3ccc(Cl)cc3)NC(=S)N2)c(Cl)cc1Cl` displayed a TGI of more than 100 µM.

The test system of the next assay is SK-OV-3 ovarian. Nature of the assay: growth of human tumour cells (NCI), 48 h.
Turning to `Cn1c(O)c(C(=O)Nc2cccs2)c(=O)[nH]c1=S`, the TGI was 72.5 µM.
